Assay: xn = mol fraction of the nth substance listed
Conditions: 101 kPa, Liquid; for mass density: Vibrating tube method; for viscosity: Vibrating wire viscometry; for speed of sound: ultrasonic interferometer

CCN(CC)CC.O=P(O)(O)O [triethylammonium dihydrogen phosphate] + CN1CCCC1=O
Conditions | mass density [kg/m3] | speed of sound [m/s] | viscosity [mPa·s]
298.15 K, x1 = 0.0115 | 1032 | 1574 | 1.95
298.15 K, x1 = 0.0257 | 1036.63 | 1580 | 2.23
298.15 K, x1 = 0.0702 | 1047.93 | 1602 | 2.5
298.15 K, x1 = 0.0995 | 1054.84 | 1624 | 3.22
298.15 K, x1 = 0.1498 | 1065.79 | 1657 | 4.42
298.15 K, x1 = 0.2409 | 1081.01 | 1711 | 6.12
298.15 K, x1 = 0.282 | 1086.8 | 1735 | 6.52
298.15 K, x1 = 0.3482 | 1094.7 | 1763 | 7.12
298.15 K, x1 = 0.4709 | 1105.46 | 1806 | 10.71
298.15 K, x1 = 0.6161 | 1114.03 | 1831 | 17.12
298.15 K, x1 = 0.6975 | 1117.42 | 1836 | 22.9
298.15 K, x1 = 0.7906 | 1120.24 | 1829 | 31.5
298.15 K, x1 = 0.9135 | 1123.51 | 1817 | 47.02
298.15 K, x1 = 0.9579 | 1124.64 | 1809 | 53.91
298.15 K, x1 = 1 | 1125.7 | 1794 | 64.31
303.15 K, x1 = 0.0115 | 1027.87 | 1558 | 0.97
303.15 K, x1 = 0.0257 | 1032.6 | 1570 | 1.24
303.15 K, x1 = 0.0702 | 1044.24 | 1595 | 2.49
303.15 K, x1 = 0.0995 | 1051.16 | 1620 | 3.17
303.15 K, x1 = 0.1498 | 1061.32 | 1656 | 3.8
303.15 K, x1 = 0.2409 | 1076.95 | 1706 | 5.27
303.15 K, x1 = 0.282 | 1083.03 | 1719 | 5.55
303.15 K, x1 = 0.3482 | 1090.71 | 1753 | 6.53
303.15 K, x1 = 0.4709 | 1101.42 | 1796 | 8.32
303.15 K, x1 = 0.6161 | 1110.51 | 1820 | 13.52
303.15 K, x1 = 0.6975 | 1114.2 | 1826 | 18.9
303.15 K, x1 = 0.7906 | 1117.34 | 1819 | 26.91
303.15 K, x1 = 0.9135 | 1121.34 | 1804 | 41.33
303.15 K, x1 = 0.9579 | 1123.03 | 1791 | 49.31
303.15 K, x1 = 1 | 1124.68 | 1769 | 57.1
308.15 K, x1 = 0.0115 | 1023.39 | 1539 | 1.07
308.15 K, x1 = 0.0257 | 1028.04 | 1544 | 1.05
308.15 K, x1 = 0.0702 | 1039.93 | 1577 | 1.97
308.15 K, x1 = 0.0995 | 1046.49 | 1600 | 2.57
308.15 K, x1 = 0.1498 | 1057.16 | 1636 | 2.91
308.15 K, x1 = 0.2409 | 1072.56 | 1689 | 4.13
308.15 K, x1 = 0.282 | 1078.25 | 1711 | 4.19
308.15 K, x1 = 0.3482 | 1086.21 | 1744 | 5.05
308.15 K, x1 = 0.4709 | 1097.31 | 1789 | 6.42
308.15 K, x1 = 0.6161 | 1106.86 | 1816 | 11
308.15 K, x1 = 0.6975 | 1111.06 | 1819 | 15.83
308.15 K, x1 = 0.7906 | 1114.71 | 1813 | 23.02
308.15 K, x1 = 0.9135 | 1119.77 | 1788 | 35.92
308.15 K, x1 = 0.9579 | 1121.61 | 1769 | 42.41
308.15 K, x1 = 1 | 1123.71 | 1757 | 49.53
313.15 K, x1 = 0.0115 | 1018.9 | 1540 | 1.61
313.15 K, x1 = 0.0257 | 1023.44 | 1552 | 1.37
313.15 K, x1 = 0.0702 | 1034.5 | 1576 | 1.48
313.15 K, x1 = 0.0995 | 1041.32 | 1594 | 1.81
313.15 K, x1 = 0.1498 | 1052.28 | 1630 | 1.88
313.15 K, x1 = 0.2409 | 1067.96 | 1685 | 1.95
313.15 K, x1 = 0.282 | 1074.06 | 1708 | 2.5
313.15 K, x1 = 0.3482 | 1081.89 | 1737 | 2.99
313.15 K, x1 = 0.4709 | 1093.3 | 1785 | 4.42
313.15 K, x1 = 0.6161 | 1103.08 | 1808 | 8.18
313.15 K, x1 = 0.6975 | 1107.89 | 1810 | 11.52
313.15 K, x1 = 0.7906 | 1111.88 | 1804 | 17.2
313.15 K, x1 = 0.9135 | 1117.73 | 1772 | 28.3
313.15 K, x1 = 0.9579 | 1119.92 | 1758 | 33.32
313.15 K, x1 = 1 | 1122.37 | 1730 | 38.31

CC(=O)[O-].C[NH+](C)C [trimethylammonium acetate] + CN1CCCC1=O
Conditions | mass density [kg/m3] | speed of sound [m/s] | viscosity [mPa·s]
298.15 K, x1 = 0.0182 | 1028.63 | 1571 | 2.04
298.15 K, x1 = 0.0369 | 1030.53 | 1575 | 2.28
298.15 K, x1 = 0.0987 | 1036.87 | 1578 | 3.04
298.15 K, x1 = 0.1401 | 1039.96 | 1581 | 3.42
298.15 K, x1 = 0.2032 | 1043.65 | 1586 | 3.89
298.15 K, x1 = 0.3166 | 1047.89 | 1584 | 4.5
298.15 K, x1 = 0.3637 | 1048.9 | 1582 | 4.56
298.15 K, x1 = 0.4353 | 1049.74 | 1580 | 4.61
298.15 K, x1 = 0.5625 | 1049.92 | 1571 | 4.52
298.15 K, x1 = 0.6999 | 1049.74 | 1559 | 4.23
298.15 K, x1 = 0.8435 | 1050.4 | 1550 | 3.7
298.15 K, x1 = 0.936 | 1051.83 | 1544 | 3.27
298.15 K, x1 = 0.9675 | 1052.54 | 1543 | 3.02
298.15 K, x1 = 1 | 1053.85 | 1544 | 2.76
303.15 K, x1 = 0.0182 | 1026.1 | 1556 | 1.64
303.15 K, x1 = 0.0369 | 1027.79 | 1560 | 1.86
303.15 K, x1 = 0.0987 | 1033.52 | 1565 | 2.56
303.15 K, x1 = 0.1401 | 1036.31 | 1568 | 3
303.15 K, x1 = 0.2032 | 1039.76 | 1572 | 3.48
303.15 K, x1 = 0.3166 | 1043.59 | 1569 | 4.05
303.15 K, x1 = 0.3637 | 1044.52 | 1566 | 4.11
303.15 K, x1 = 0.4353 | 1045.32 | 1564 | 4.16
303.15 K, x1 = 0.5625 | 1045.54 | 1551 | 4.01
303.15 K, x1 = 0.6999 | 1045.69 | 1537 | 3.64
303.15 K, x1 = 0.8435 | 1046.54 | 1524 | 3.14
303.15 K, x1 = 0.936 | 1048.22 | 1517 | 2.78
303.15 K, x1 = 0.9675 | 1048.93 | 1515 | 2.52
303.15 K, x1 = 1 | 1049.87 | 1514 | 2.37
308.15 K, x1 = 0.0182 | 1021.24 | 1534 | 1.43
308.15 K, x1 = 0.0369 | 1023.08 | 1540 | 1.57
308.15 K, x1 = 0.0987 | 1028.14 | 1546 | 2.23
308.15 K, x1 = 0.1401 | 1030.79 | 1550 | 2.64
308.15 K, x1 = 0.2032 | 1034.23 | 1555 | 3.14
308.15 K, x1 = 0.3166 | 1037.97 | 1554 | 3.7
308.15 K, x1 = 0.3637 | 1039.05 | 1553 | 3.76
308.15 K, x1 = 0.4353 | 1039.98 | 1551 | 3.77
308.15 K, x1 = 0.5625 | 1040.55 | 1540 | 3.52
308.15 K, x1 = 0.6999 | 1040.85 | 1530 | 3.12
308.15 K, x1 = 0.8435 | 1042 | 1519 | 2.64
308.15 K, x1 = 0.936 | 1043.81 | 1512 | 2.34
308.15 K, x1 = 0.9675 | 1044.69 | 1511 | 2.16
308.15 K, x1 = 1 | 1045.81 | 1508 | 2.06
313.15 K, x1 = 0.0182 | 1016.53 | 1528 | 1.52
313.15 K, x1 = 0.0369 | 1017.98 | 1533 | 1.38
313.15 K, x1 = 0.0987 | 1023.07 | 1538 | 1.96
313.15 K, x1 = 0.1401 | 1025.67 | 1542 | 2.39
313.15 K, x1 = 0.2032 | 1029.09 | 1546 | 2.81
313.15 K, x1 = 0.3166 | 1032.81 | 1544 | 3.37
313.15 K, x1 = 0.3637 | 1033.73 | 1543 | 3.41
313.15 K, x1 = 0.4353 | 1034.71 | 1540 | 3.42
313.15 K, x1 = 0.5625 | 1035.21 | 1528 | 3.16
313.15 K, x1 = 0.6999 | 1035.7 | 1517 | 2.74
313.15 K, x1 = 0.8435 | 1037.36 | 1508 | 2.25
313.15 K, x1 = 0.936 | 1039.26 | 1502 | 2.04
313.15 K, x1 = 0.9675 | 1040.35 | 1496 | 1.92
313.15 K, x1 = 1 | 1041.7 | 1490 | 1.83

— the NIST ThermoML archive (doi:10.1016/j.tca.2012.07.004)
